Measurements from the supplement of paper PMC11061612.

What was measured:
AZD1775 = compound: C=CCn1c(=O)c2cnc(Nc3ccc(N4CCN(C)CC4)cc3)nc2n1-c1cccc(C(C)(C)O)n1 [AZD1775]; settings: max 3 µM
Outline: (§1)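 Plates with 1536 wells received cancer cell lines in 7.5 μl of DMEM/F12 or RPMI containing 10% FBS. After 24 hours at 37°C and 5% CO2, cells were dosed for 72 hours with final DMSO typically 0.2%, and viability was read by CellTiter-Glo 2.0 luminescence scaled between blank-well and DMSO-well means. The single-agent IC50 was taken from a logistic fit of the dose responses made with a non-linear mixed effects model, that logistic curve having two parameters.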

AZD6738 = compound: C[C@@H]1COCCN1C2=NC(=NC(=C2)C3(CC3)[S@](=N)(=O)C)C4=C5C=CNC5=NC=C4 [AZD6738]; settings: max 10 µM
Outline: as §1

Taselisib = compound: Cc1nc(-c2cn3c(n2)-c2ccc(-c4cnn(C(C)(C)C(N)=O)c4)cc2OCC3)n(C(C)C)n1 [Taselisib]; settings: max 10 µM
Outline: as §1

Gemcitabine = compound: Nc1ccn([C@@H]2O[C@H](CO)[C@@H](O)C2(F)F)c(=O)n1 [Gemcitabine]; settings: max 0.3 µM
Outline: as §1

Paclitaxel = compound: CC(=O)O[C@H]1C(=O)[C@@]2(C)[C@H]([C@H](OC(=O)c3ccccc3)[C@]3(O)C[C@H](OC(=O)[C@H](O)[C@@H](NC(=O)c4ccccc4)c4ccccc4)C(C)=C1C3(C)C)[C@]1(OC(C)=O)CO[C@@H]1C[C@@H]2O [Paclitaxel]; settings: max 3 µM
Outline: as §1

AZD7648 = compound: Cc1cc2ncnn2cc1Nc1ncc2c(n1)n(C1CCOCC1)c(=O)n2C [AZD7648]; settings: max 10 µM
Outline: as §1

AZD4320 = compound: CN(CC[C@H](CSC1=CC=CC=C1)NC2=C(C=C(C=C2)S(=O)(=O)NC(=O)C3=CC=C(C=C3)N4CCC(CC4)[C@H](C5=CC=CC=C5C6=CC=C(C=C6)Cl)O)S(=O)(=O)C(F)(F)F)CCO [AZD4320]; settings: max 1 µM
Outline: as §1

Venetoclax = compound: CC1(C)CCC(CN2CCN(c3ccc(C(=O)NS(=O)(=O)c4ccc(NCC5CCOCC5)c([N+](=O)[O-])c4)c(Oc4cnc5[nH]ccc5c4)c3)CC2)=C(c2ccc(Cl)cc2)C1 [Venetoclax]; settings: max 1 µM
Outline: as §1

Carboplatin = compound: C1CC(C1)(C(=O)[O-])C(=O)[O-].N.N.[Pt+2] [Carboplatin]; settings: max 10 µM
Outline: as §1

SRA737 = compound: N#Cc1cnc(Nc2cc(NC[C@H]3CNCCO3)c(C(F)(F)F)cn2)cn1 [SRA737]; settings: max 10 µM
Outline: as §1

Selumetinib = compound: Cn1cnc2c(F)c(Nc3ccc(Br)cc3Cl)c(C(=O)NOCCO)cc21 [Selumetinib]; settings: max 10 µM
Outline: as §1

AZD5991 = compound: Cc1c2c(nn1C)CSCc1cc(n(C)n1)CSc1cc(c3ccccc3c1)OCCCc1c(C(=O)O)n(C)c3c-2c(Cl)ccc13 [AZD5991]; settings: max 1 µM
Outline: as §1

AZD0156 = compound: CN(C)CCCOc1ccc(-c2ccc3ncc4c(c3c2)n(C2CCOCC2)c(=O)n4C)cn1 [AZD0156]; settings: max 3 µM
Outline: as §1

Palbociclib = compound: CC(=O)c1c(C)c2cnc(Nc3ccc(N4CCNCC4)cn3)nc2n(C2CCCC2)c1=O [Palbociclib]; settings: max 10 µM
Outline: as §1

Gefitinib = compound: COc1cc2ncnc(Nc3ccc(F)c(Cl)c3)c2cc1OCCCN1CCOCC1 [Gefitinib]; settings: max 10 µM
Outline: as §1

Dasatinib = compound: CC1=C(C(=CC=C1)Cl)NC(=O)C2=CN=C(S2)NC3=CC(=NC(=N3)C)N4CCN(CC4)CCO [Dasatinib]; settings: max 2 µM
Outline: as §1

MK-2206 = compound: NC1(c2ccc(-c3nc4ccn5c(=O)[nH]nc5c4cc3-c3ccccc3)cc2)CCC1 [MK-2206]; settings: max 10 µM
Outline: as §1

Crizotinib = compound: C[C@@H](Oc1cc(-c2cnn(C3CCNCC3)c2)cnc1N)c1c(Cl)ccc(F)c1Cl [Crizotinib]; settings: max 10 µM
Outline: as §1

SN-38 = compound: CCc1c2c(nc3ccc(O)cc13)-c1cc3c(c(=O)n1C2)COC(=O)[C@]3(O)CC [SN-38]; settings: max 0.3 µM
Outline: as §1

Savolitinib = compound: C[C@@H](c1ccc2nccn2c1)n1nnc2ncc(-c3cnn(C)c3)nc21 [Savolitinib]; settings: max 1 µM
Outline: as §1

Lapatinib = compound: CS(=O)(=O)CCNCc1ccc(-c2ccc3ncnc(Nc4ccc(OCc5cccc(F)c5)c(Cl)c4)c3c2)o1 [Lapatinib]; settings: max 10 µM
Outline: as §1

AZD8186 = compound: C[C@@H](Nc1cc(F)cc(F)c1)c1cc(C(=O)N(C)C)cc2c(=O)cc(N3CCOCC3)oc12 [AZD8186]; settings: max 10 µM
Outline: as §1

AZD1390 = compound: CC(C)n1c(=O)n(C)c2cnc3cc(F)c(-c4ccc(OCCCN5CCCCC5)nc4)cc3c21 [AZD1390]; settings: max 0.3 µM
Outline: as §1

AZD2811 = compound: CCN(CCO)CCCOc1ccc2c(Nc3cc(CC(=O)Nc4cccc(F)c4)[nH]n3)ncnc2c1 [AZD2811]; settings: max 1 µM
Outline: as §1

[1] = compound: O=C(Nc1ccc2[nH]nc(-c3ccncc3)c2c1)[C@@H]1CCN(CC(=O)N2CCN(c3ccc(-c4ncccn4)cc3)CC2)C1; settings: max 5 µM
Outline: as §1

AZD5363 = compound: C1CN(CCC1(C(=O)N[C@@H](CCO)C2=CC=C(C=C2)Cl)N)C3=NC=NC4=C3C=CN4 [AZD5363]; settings: max 10 µM
Outline: as §1

AZD5153 = compound: COc1nnc2ccc(N3CCC(c4ccc(OCCN5CCN(C)C(=O)[C@H]5C)cc4)CC3)nn12 [AZD5153]; settings: max 1 µM
Outline: as §1

5-Fluorouracil = compound: O=c1[nH]cc(F)c(=O)[nH]1 [5-Fluorouracil]; settings: max 20 µM
Outline: as §1

Etoposide = compound: COc1cc([C@@H]2c3cc4c(cc3[C@@H](O[C@@H]3O[C@@H]5CO[C@@H](C)O[C@H]5[C@H](O)[C@H]3O)[C@H]3COC(=O)[C@H]23)OCO4)cc(OC)c1O [Etoposide]; settings: max 10 µM
Outline: as §1

Olaparib = compound: O=C(c1cc(Cc2n[nH]c(=O)c3ccccc23)ccc1F)N1CCN(C(=O)C2CC2)CC1 [Olaparib]; settings: max 10 µM
Outline: as §1

Trametinib = compound: CC(=O)Nc1cccc(-n2c(=O)n(C3CC3)c(=O)c3c(Nc4ccc(I)cc4F)n(C)c(=O)c(C)c32)c1 [Trametinib]; settings: max 1 µM
Outline: as §1

Alisertib = compound: COc1cc(Nc2ncc3c(n2)-c2ccc(Cl)cc2C(c2c(F)cccc2OC)=NC3)ccc1C(=O)O [Alisertib]; settings: max 10 µM
Outline: as §1

Doxorubicin = compound: COc1cccc2c1C(=O)c1c(O)c3c(c(O)c1C2=O)C[C@@](O)(C(=O)CO)C[C@@H]3O[C@H]1C[C@H](N)[C@H](O)[C@H](C)O1 [Doxorubicin]; settings: max 1 µM
Outline: as §1

SG3199 = compound: CC1=CN2[C@@H](C1)C=NC3=CC(=C(C=C3C2=O)OC)OCCCCCOC4=C(C=C5C(=C4)N=C[C@@H]6CC(=CN6C5=O)C)OC [SG3199]; settings: max 0.001 µM
Outline: as §1

Prexasertib = compound: COc1cccc(OCCCN)c1-c1cc(Nc2cnc(C#N)cn2)n[nH]1 [Prexasertib]; settings: max 1 µM
Outline: as §1

| Cell Line | IC50, cell viability 72 h (AZD1775) | IC50, cell viability 72 h (AZD6738) | IC50, cell viability 72 h (Taselisib) | IC50, cell viability 72 h (Gemcitabine) | IC50, cell viability 72 h (Paclitaxel) | IC50, cell viability 72 h (AZD7648) | IC50, cell viability 72 h (AZD4320) | IC50, cell viability 72 h (Venetoclax) | IC50, cell viability 72 h (Carboplatin) | IC50, cell viability 72 h (SRA737) | IC50, cell viability 72 h (Selumetinib) | IC50, cell viability 72 h (AZD5991) | IC50, cell viability 72 h (AZD0156) | IC50, cell viability 72 h (Palbociclib) | IC50, cell viability 72 h (Gefitinib) | IC50, cell viability 72 h (Dasatinib) | IC50, cell viability 72 h (MK-2206) | IC50, cell viability 72 h (Crizotinib) | IC50, cell viability 72 h (SN-38) | IC50, cell viability 72 h (Savolitinib) | IC50, cell viability 72 h (Lapatinib) | IC50, cell viability 72 h (AZD8186) | IC50, cell viability 72 h (AZD1390) | IC50, cell viability 72 h (AZD2811) | IC50, cell viability 72 h [1] | IC50, cell viability 72 h (AZD5363) | IC50, cell viability 72 h (AZD5153) | IC50, cell viability 72 h (5-Fluorouracil) | IC50, cell viability 72 h (Etoposide) | IC50, cell viability 72 h (Olaparib) | IC50, cell viability 72 h (Trametinib) | IC50, cell viability 72 h (Alisertib) | IC50, cell viability 72 h (Doxorubicin) | IC50, cell viability 72 h (SG3199) | IC50, cell viability 72 h (Prexasertib) |
| --- | --- | --- | --- | --- | --- | --- | --- | --- | --- | --- | --- | --- | --- | --- | --- | --- | --- | --- | --- | --- | --- | --- | --- | --- | --- | --- | --- | --- | --- | --- | --- | --- | --- | --- | --- |
| NB12 (Neuroblastoma) | 731 nM | > 10 µM | 0.968 µM | 57.4 nM | 15 nM | > 10 µM | 31.1 nM | 333 nM | > 10 µM | > 10 µM | > 10 µM | > 1000 nM | > 3000 nM | > 10 µM | > 10 µM | > 2000 nM | 7.04 µM | 9.85 µM | 6.61 nM | > 1000 nM | > 10 µM | > 10 µM | > 300 nM | 342 nM | > 5000 nM | > 10 µM | 217 nM | > 20 µM | > 10 µM | > 10 µM | > 1000 nM | – | – | – | – |
| PC-3_[JPC-3] (Lung Adenocarcinoma) | > 3000 nM | > 10 µM | > 10 µM | 230 nM | 416 nM | > 10 µM | > 1000 nM | > 1000 nM | > 10 µM | > 10 µM | > 10 µM | > 1000 nM | > 3000 nM | > 10 µM | – | 853 nM | > 10 µM | > 10 µM | 35.9 nM | > 1000 nM | 5.12 µM | > 10 µM | > 300 nM | > 1000 nM | > 5000 nM | > 10 µM | > 1000 nM | > 20 µM | > 10 µM | > 10 µM | > 1000 nM | > 10 µM | > 1000 nM | > 1 nM | > 1000 nM |
| SK-MEL-2 (Melanoma) | > 3000 nM | > 10 µM | > 10 µM | > 300 nM | 402 nM | > 10 µM | > 1000 nM | > 1000 nM | > 10 µM | > 10 µM | 3.99 µM | 343 nM | > 3000 nM | > 10 µM | > 10 µM | > 2000 nM | > 10 µM | > 10 µM | > 300 nM | > 1000 nM | > 10 µM | > 10 µM | > 300 nM | > 1000 nM | 716 nM | > 10 µM | 345 nM | > 20 µM | > 10 µM | > 10 µM | 32.4 nM | – | – | – | – |
